# Laboratory results from US20150119378A1, “AZETIDINYLOXY-, PYRROLIDINYLOXY-, AND PIPERIDINYLOXY-SUBSTITUTED METANICOTINES AS NEURONAL NICOTINIC ACETYLCHOLINE RECEPTOR LIGANDS” (priority 2013, published 2015).
# Read-outs that look alike come from different tables or passages of the source.
# Assays:
# Human α7 nAChR = target: T1, Human α7 nAChR (Homo sapiens, UniProt P36544); assay: Competition binding to receptors in membrane preparations, human α7 ([3H]-epibatidine)
# T1 construct: expressed in transfected cells; host or cells: HEK cells co-expressing RIC3 (from J. Lindstrom, U. Pennsylvania)
# Method: (§1) SH-EP1/human α4β2 (Eaton et al., 2003), SH-EP1/human α4β4 (Gentry et al., 2003), SH-EP1/α6β3β4α5 (Grinevich et al., 2005), TE671/RD and SH-SY5Y cell lines (obtained from Dr. Ron Lukas, Barrow Neurological Institute) were maintained in proliferative growth phase in Dulbecco's modified Eagle's medium (Gibco/BRL) with 10% horse serum (Gibco BRL), 5% fetal bovine serum (HyClone, Logan Utah), 1 mM sodium pyruvate, 4 mM L-glutamine. For maintenance of stable transfectants, the α4β2 and α4β4 cell media was supplemented with 0.25 mg/mL zeocin and 0.13 mg/mL hygromycin B. Selection was maintained for the α6β3β4α5 cells with 0.25 mg/mL of zeocin, 0.13 mg/mL of hygromycin B, 0.4 mg/mL of geneticin, and 0.2 mg/mL of blasticidin. HEK/human α7/RIC3 cells (obtained from J. Lindstrom, U. Pennsylvania) were maintained in proliferative growth phase in Dulbecco's modified Eagle's medium (Gibco/BRL) with 10% fetal bovine serum (HyClone, Logan Utah), 1 mM sodium pyruvate, 4 mM L-glutamine, 0.4 mg/mL geneticin; 0.2 mg/ml hygromycin B.
# (§2) Cells were harvested in ice-cold PBS, pH 7.4, then homogenized with a polytron (Brinkmann Instruments, Westbury, N.Y.). Homongenates were centrifuged at 40,000 g for 20 minutes (4° C.). The pellet was resuspended in PBS and protein concentration determined using the Pierce BCA Protein Assay kit (Pierce Biotechnology, Rockford, Ill.).
# (§3) Binding to nicotinic receptors was assayed on membranes using standard methods adapted from published procedures (Lippiello and Fernandes, 1986; Davies et al., 1999). In brief, membranes were reconstituted from frozen stocks (approximately 0.2 mg protein) and incubated for 2 h on ice in […] assay buffer (PBS) in the presence of competitor compound (0.001 nM to […]) and radioligand. [^3H]-nicotine (L-(−)-[N-methyl-3H]-nicotine, 69.5 Ci/mmol, Perkin-Elmer Life Sciences) was used for human α4β2 binding studies. [^3H]-epibatidine (52 Ci/mmol, Perkin-Elmer Life Sciences) was used for binding studies at the other receptor subtypes. Incubation was terminated by rapid filtration on a multimanifold tissue harvester (Brandel, Gaithersburg, Md.) using GF/B filters presoaked in 0.33% polyethyleneimine (w/v) to reduce non-specific binding. Filters were washed 3 times and the radioactivity retained was determined by liquid scintillation counting.
# (§4) Binding data were expressed as percent total control binding. Replicates for each point were averaged and plotted against the log of drug concentration. The IC50 (concentration of the compound that produces 50% inhibition of binding) was determined by least squares non-linear regression using GraphPad Prism software (GraphPAD, San Diego, Calif.). Ki was calculated using the Cheng-Prusoff equation (Cheng and Prusoff, 1973).
# Rat Ganglion = Rat Ganglion (Rattus norvegicus, UniProt P04757+P12392); assay: Competition binding to receptors in membrane preparations, rat ganglion subtype ([3H]-epibatidine)
# Method: as §3, §4
# Human Ganglion = target: T2, Human Ganglion (Homo sapiens, UniProt P30926+P32297); assay: Competition binding to receptors in membrane preparations, human ganglion subtype ([3H]-epibatidine)
# T2 construct: endogenous in cells
# Method: as §1, §2, §3, §4
# Human α4β2 = target: T3, Human α4β2 (Homo sapiens, UniProt P17787+P43681); assay: Competition binding to receptors in membrane preparations, human α4β2 ([3H]-nicotine)
# T3 construct: expressed in transfected cells; obtained from Dr. Ron Lukas, Barrow Neurological Institute
# Method: as §1, §2, §3, §4
# [1] = tested on: scopolamine induced deficit in mice; assay: Morris Water Maze, scopolamine-induced memory (spatial) deficit; type: in vivo, male CD-1 mice
# Method: Compounds of the present invention were tested in the Morris Water Navigation Task to characterize the cognitive-enhancing properties, namely through a chemically-induced memory (spatial) deficit task in the mouse.
# The animals were male CD-1 mice (Charles River, Raleigh, N.C., USA), with 25-30 g body weight range on receipt. Animals were stabilized for at least 5 days after delivery in plastic cages on alpha-dry bedding with free access to food and water.
# Test Compound, (2S,4E)-N-methyl-5-(5-((3R)-1-(4,4,4-trifluorobutanoyl)pyrrolidin-3-yloxy)-6-chloro-3-pyridinyl)-4-penten-2-amine, or a pharmaceutically acceptable salt thereof, such as the hemi-galactarate, was dissolved in deionized water (salt/base ratio=1.25).
# The treatment schedule included scopolamine (0.75 mg/kg; s.c.) administered 15 minutes before the first training session each training day in combination with Test Compound (0.3, 1, 3 mg/kg of base) administered i.g. 25 minutes before the first training session each training day.
# Scopolamine (0.75 mg/kg; s.c.) alone was administered 15 minutes before the training session each training day.
# Cognitive activity was evaluated using an acquisition procedure in the Morris water maze whereby animals are administered a cognitively impairing compound (scopolamine) alone or in combination with a Test Compound during training sessions on days 1-4. Performance is evaluated on day 5 during a probe trial without any drug on board.
# Preliminary analysis used one-way analysis of variance followed by post-hoc t-tests (Dunnetts) where applicable.
# [2] = tested on: memory (recognition) task in the rat; assay: Object recognition task (NOR); type: in vivo, male Sprague-Dawley rats
# Method: The compounds of the present invention were assessed for cognitive enhancing properties in the object recognition task in rats. In more detail, the compounds of the present invention, specifically Test Compound, (2S,4E)-N-methyl-5-(5-((3R)-1-(4,4,4-trifluorobutanoyl)pyrrolidin-3-yloxy)-6-chloro-3-pyridinyl)-4-penten-2-amine, or a pharmaceutically acceptable salt thereof, such as the hemi-galactarate, were tested to characterize the cognitive-enhancing properties of in a memory (recognition) task in the rat following oral dosing. Reference is made, for example, to Ennaceur A., et al., (1988), A New One-Trial Test for Neurobiological Studies of Memory in Rats, Behavioral Brain Research, 31, pp. 47-59.
# The animals used were male Sprague-Dawley rats (Charles River, Raleigh, N.C., USA), of 134-173 g body weight range on receipt. The animals were stabilized for at least 6 days after delivery in plastic cages on alpha-dry bedding with access to food and water (2 per cage).
# The Test Compound was dissolved in deionized water. The treatment schedule was 0.001, 0.01 and 0.1 mg/kg of base (salt/base ratio=1.25; equivalent to […]) or vehicle was administered p.o. 6H before exploratory, acquisition, and recall object recognition trials. All treatments were separated by 24 h, however although the acclimation and acquisition trials were separated by 24 h, the recall trial occurred 30 h after the acquisition trial (i.e. 6 h after the third dose).
# The method of evaluation included cognitive activity using the method of Luine et al. A statistical analysis was performed using parametric distribution (exploration time): Student's t-test; (% RI): Kruskall-Wallace One-way ANOVA on Ranks with Dunn's method for post-hoc analyses.
# [3] = 0.3 mg/kg i.g. with scopolamine 0.75 mg/kg s.c., vs scopolamine alone, Dunnett's p<0.01
Structure (SMILES),Ki (Human α7 nAChR) [µM],Ki (Rat Ganglion) [µM],Ki (Human Ganglion) [µM],Ki (Human α4β2; read-out: Human α4β2 Ki) [µM],further results
CN[C@@H](C)C/C=C/c1cnc(Cl)c(O[C@H]2CCN(C(=O)c3ccc(F)cc3)C2)c1,98,5.9,16,0.0015,–
CN[C@@H](C)C/C=C/c1cncc(O[C@@H]2CCN(C(=O)C(C)C)C2)c1,35,50,11,0.009,–
CN[C@@H](C)C/C=C/c1cncc(O[C@@H]2CCN(C(=O)c3ccc(F)cc3F)C2)c1,41,19,3,0.0059,–
CN[C@@H](C)C/C=C/c1cncc(O[C@@H]2CCN(C(=O)C(C)(C)C)C2)c1,51,100,21,0.017,–
CN[C@@H](C)C/C=C/c1cncc(O[C@@H]2CCN(C(=O)C3CCC3)C2)c1,58,45,26,0.0061,–
CN[C@@H](C)C/C=C/c1cncc(O[C@@H]2CCN(C(=O)C3CCCC3)C2)c1,26,28,14,0.0074,–
"CN[C@@H](C)C/C=C/c1cnc(Cl)c(O[C@@H]2CCN(C(=O)CCC(F)(F)F)C2)c1 [Test Compound, (2S,4E)-N-methyl-5-(5-((3R)-1-(4,4,4-trifluorobutanoyl)pyrrolidin-3-yloxy)-6-chloro-3-pyridinyl)-4-penten-2-amine]",–,–,–,–,"mean distance from the platform (proximity) in the probe trial [1, 3]: significantly improved performance; time spent in the target quadrant in the probe trial [1, 3]: significantly improved performance; time spent in the target quadrant in the probe trial ([1]; 3.0 mg/kg i.g. with scopolamine 0.75 mg/kg s.c., vs scopolamine alone, Dunnett's p<0.05): significantly improved performance; spatial memory performance (summary) ([1]; doses of 0.3 and 3.0 mg/kg, animals cognitively impaired by scopolamine): significantly improved spatial memory performance; overt behavioral side effects ([2]; 0.001, 0.01, 0.1 mg/kg p.o., rats): No overt behavioral side effects were observed; recognition index (% RI) compared to vehicle-treated group ([2]; all dose groups 0.001-0.1 mg/kg p.o., statistical significance at the two higher doses): improved; time investigating object B (novel) versus object A (familiar) ([2]; any dose (0.001, 0.01 or 0.1 mg/kg p.o.), recall 6 h after third daily dose): spent significantly (P<0.05) more time investigating object B (novel) than object A (familiar); MED for % RI ([2]; p.o., rats, non-parametric statistical analyses): 0.01 mg/kg; episodic memory, % RI (summary) ([2]; young rats, dose range of 0.01 to 0.1 mg/kg, strong trend at 0.001 mg/kg): facilitates episodic memory"
CN[C@@H](C)C/C=C/c1cnc(Cl)c(O[C@@H]2CCN(C(=O)CCC(F)(F)F)C2)c1 [drawing 62],55,15,7.4,–,Ki (Human α4β2): 0.0014 µM
